{
  "source": "patent US8791107B2",
  "about": "“N-substituted oxazinopteridines and oxazinopteridinones” (Takeda Pharmaceutical Company Limited, priority 2011, dated 2014)",
  "data": [
    {"molecular_target": "T1, PI3Kδ (Homo sapiens, UniProt O00329)", "T1 construct": "The protein is full length and co-expressed with untagged PIK3R1; GST; purchased Invitrogen PV5274", "T1 sequence (O00329 whole entry)": "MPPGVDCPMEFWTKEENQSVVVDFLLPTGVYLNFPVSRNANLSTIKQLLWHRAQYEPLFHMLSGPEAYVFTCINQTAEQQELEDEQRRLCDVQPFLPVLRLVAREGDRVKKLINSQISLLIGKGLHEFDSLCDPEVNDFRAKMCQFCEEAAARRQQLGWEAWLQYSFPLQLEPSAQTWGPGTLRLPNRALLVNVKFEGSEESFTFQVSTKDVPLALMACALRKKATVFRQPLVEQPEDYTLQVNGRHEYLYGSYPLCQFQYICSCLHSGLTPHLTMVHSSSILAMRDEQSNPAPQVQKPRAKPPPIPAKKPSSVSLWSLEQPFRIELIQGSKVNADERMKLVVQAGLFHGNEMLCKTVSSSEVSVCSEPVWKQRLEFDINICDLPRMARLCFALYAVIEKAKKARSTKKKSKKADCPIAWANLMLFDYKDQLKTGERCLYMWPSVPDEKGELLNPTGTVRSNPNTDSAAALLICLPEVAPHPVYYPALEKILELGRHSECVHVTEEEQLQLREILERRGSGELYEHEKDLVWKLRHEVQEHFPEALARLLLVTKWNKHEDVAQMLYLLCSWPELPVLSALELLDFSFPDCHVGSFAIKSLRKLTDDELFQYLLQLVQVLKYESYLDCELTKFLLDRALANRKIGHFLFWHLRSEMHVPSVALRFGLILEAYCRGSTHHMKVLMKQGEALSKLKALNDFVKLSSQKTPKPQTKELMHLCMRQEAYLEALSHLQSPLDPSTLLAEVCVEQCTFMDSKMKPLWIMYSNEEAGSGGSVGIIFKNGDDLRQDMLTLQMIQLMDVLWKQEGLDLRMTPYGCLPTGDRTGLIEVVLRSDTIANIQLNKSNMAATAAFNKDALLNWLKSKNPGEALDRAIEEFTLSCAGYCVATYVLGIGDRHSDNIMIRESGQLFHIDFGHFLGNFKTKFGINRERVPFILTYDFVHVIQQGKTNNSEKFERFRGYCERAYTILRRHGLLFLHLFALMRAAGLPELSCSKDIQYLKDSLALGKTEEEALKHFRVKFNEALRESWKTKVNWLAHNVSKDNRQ", "T1 sequence (P27986 whole entry partner)": "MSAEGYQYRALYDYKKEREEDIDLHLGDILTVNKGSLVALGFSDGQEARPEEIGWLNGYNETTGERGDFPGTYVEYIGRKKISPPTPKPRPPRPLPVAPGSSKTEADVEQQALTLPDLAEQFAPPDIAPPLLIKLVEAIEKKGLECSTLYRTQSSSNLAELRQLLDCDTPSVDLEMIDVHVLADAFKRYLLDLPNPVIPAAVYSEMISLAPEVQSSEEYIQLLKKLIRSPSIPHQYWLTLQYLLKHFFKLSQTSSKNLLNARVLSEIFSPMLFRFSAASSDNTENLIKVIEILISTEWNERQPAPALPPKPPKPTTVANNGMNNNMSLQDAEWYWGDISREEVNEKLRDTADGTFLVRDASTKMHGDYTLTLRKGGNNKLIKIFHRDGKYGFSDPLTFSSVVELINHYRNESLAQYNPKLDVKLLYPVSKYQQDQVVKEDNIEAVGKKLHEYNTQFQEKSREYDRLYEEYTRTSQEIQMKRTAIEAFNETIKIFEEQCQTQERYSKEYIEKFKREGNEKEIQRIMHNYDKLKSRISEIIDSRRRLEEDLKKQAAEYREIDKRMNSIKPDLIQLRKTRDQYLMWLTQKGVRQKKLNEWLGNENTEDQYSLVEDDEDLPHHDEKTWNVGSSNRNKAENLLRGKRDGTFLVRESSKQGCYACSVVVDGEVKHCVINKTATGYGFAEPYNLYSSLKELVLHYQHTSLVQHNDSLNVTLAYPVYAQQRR", "assay": "PI3Kδ inhibition, modified PIK3CD Adapta TR-FRET assay", "type": "biochemical", "details": "recombinant GST-tagged full length PIK3CD co-expressed with PIK3R1 (p85α); 2 μM ATP, 50 μM PIP2; read-out: PI3Kδ Inhibition (pIC50) (converted)", "protocol": "The activity of compounds as PI3Kδ inhibitors may be determined by a variety of methods, including in vitro and in vivo methods. The following in vitro assay measures a test compound's ability to inhibit PI3Kδ-mediated phosphorylation of PIP2 and ATP.\nRecombinant GST-tagged PIK3CD is purchased from Invitrogen (Part Number: PV5274). The protein is full length and co-expressed with untagged PIK3R1, phosphoinositide-3-kinase regulatory subunit 1 (p85α). The protein is stored at −20° C. in 50 mM TRIS (pH 7.5), 150 mM NaCl, 0.5 mM EDTA, 0.02% Triton® X-100, 2 mM DTT, and 50% glycerol.\nA modified PIK3CD Adapta® assay (Invitrogen, Carlsbad, Calif.) is used to measure PI3Kδ inhibition of the example compounds. The assay has two phases. In the first phase, kinase reaction components, which include the enzyme (PIK3CD), substrates (PIP2, ATP), test compound (inhibitor), and assay buffer are added to each well, and the reaction is allowed to incubate for a pre-determined period of time. […] In the presence of the inhibitor, the amount of ADP formed by the kinase reaction is reduced, and the resulting intact antibody-tracer interaction maintains a high TR-FRET signal.\nThe reaction buffer contains 50 mM Hepes (pH 7.5), 3 mM MgCl2, 1 mM EGTA, 100 mM NaCl, 0.03% CHAPS; 2 mM DTT is added fresh prior to each experiment. […] Next, test compounds (2 μL) from a source plate (5% dilution plate) are introduced into the wells. The final DMSO concentration in each assay well is 1%. […] Other wells contain test compounds serially diluted across the plate 11 times for a total of 12 data points. The kinase reactions are carried out at room temperature and are initiated by the addition of 4 μL of solution containing 2 μM ATP and 50 μM PIP2. […] This emission signal is referenced or “ratioed” to the emission from Eu at 620 nm. […] The percent inhibition for a given inhibitor concentration is computed from % conversion for the reaction and for the positive and negative controls.", "units": {"IC50": "nM"}, "values": [
      {"smiles": "CC(C)(O)CCN1C[C@@H]2COCCN2c2nc(-c3cccc(CO)c3)ncc21", "note": "[Example 171, (R)-4-(2-(3-(hydroxymethyl)phenyl)-6a,7,9,10-tetrahydro-[1,4]oxazino[3,4-h]pteridin-5(6H)-yl)-2-methylbutan-2-ol]", "IC50": 3.16},
      {"smiles": "CS(=O)(=O)c1ccc(CN2CC3COCCN3c3nc(-c4cnc(N)nc4)ncc32)c(Cl)c1", "note": "(centres unmarked) [Example 7, 5-(5-(2-chloro-4-(methylsulfonyl)benzyl)-5,6,6a,7,9,10-hexahydro-[1,4]oxazin[3,4-h]pteridin-2-yl)pyrimidin-2-amine]", "IC50": 7.94},
      {"smiles": "CCc1cc(CN2C[C@@H]3COCCN3c3nc(-c4cccc5[nH]ccc45)ncc32)on1", "note": "[Example 188, (R)-5-((3-ethylisoxazol-5-yl)methyl)-2-(1H-indol-4-yl)-5,6,6a,7,9,10-hexahydro-[1,4]oxazino[3,4-h]pteridine]", "IC50": 39.8},
      {"smiles": "CS(=O)(=O)c1ccc(CN2C(=O)C3COCCN3c3nc(-c4cccc(C(N)=O)c4)ncc32)cc1", "note": "(centres unmarked) [Example 113, 3-(5-(4-(methylsulfonyl)benzyl)-6-oxo-5,6,6a,7,9,10-hexahydro-[1,4]oxazino[3,4-h]pteridin-2-yl)benzamide]", "IC50": 501},
      {"smiles": "COC(=O)c1cncc(N2C[C@@H]3COCCN3c3nc(-c4cccc5[nH]ccc45)ncc32)c1", "note": "[Example 199, (R)-methyl 5-(2-(1H-indol-4-yl)-6a,7,9,10-tetrahydro-[1,4]oxazino[3,4-h]pteridin-5(6H)-yl)nicotinate]", "IC50": 1000},
      {"smiles": "O=C(CN1C[C@@H]2COCCN2c2nc(-c3cncc4[nH]ccc34)ncc21)NCC1CCOCC1", "note": "[Example 174, (R)-2-(2-(1H-pyrrolo[2,3-c]pyridin-4-yl)-6a,7,9,10-tetrahydro-[1,4]oxazino[3,4-h]pteridin-5(6H)-yl)-N-((tetrahydro-2H-pyran-4-yl)methyl)acetamide]", "IC50": 7.94},
      {"smiles": "COc1ccc2c(-c3ncc4c(n3)N3CCOCC3CN4)c[nH]c2c1", "note": "(centres unmarked) [Example 8, 2-(6-methoxy-1H-indol-3-yl)-5,6,6a,7,9,10-hexahydro-[1,4]oxazino[3,4-h]pteridine]", "IC50": "> 10000"},
      {"smiles": "O=C(O)CCCN1C[C@@H]2COCCN2c2nc(-c3cccc4[nH]ccc34)ncc21", "note": "[Example 196, (R)-4-(2-(1H-indol-4-yl)-6a,7,9,10-tetrahydro-[1,4]oxazino[3,4-h]pteridin-5(6H)-yl)butanoic acid]", "IC50": 6.31},
      {"smiles": "NC(=O)c1cccc(CN2CC3COCCN3c3nc(-c4cccc5[nH]ccc45)ncc32)c1", "note": "(centres unmarked) [Example 76, 3-((2-(1H-indol-4-yl)-6a,7,9,10-tetrahydro-[1,4]oxazino[3,4-h]pteridin-5(6H)-yl)methyl)benzamide]", "IC50": 31.6},
      {"smiles": "Cc1ccc([C@H](C)N2C(=O)[C@@H]3COCCN3c3nc(-c4cccc5[nH]ccc45)ncc32)cc1", "note": "(single isomer, unassigned) [Example 153]", "IC50": 39.8},
      {"smiles": "O=C(CN1C[C@@H]2COCCN2c2nc(-c3cccc4[nH]ccc34)ncc21)NCC1CC1", "note": "[Example 70, (R)-2-(2-(1H-indol-4-yl)-6a,7,9,10-tetrahydro-[1,4]oxazino[3,4-h]pteridin-5(6H)-yl)-N-(cyclopropylmethyl)acetamide]", "IC50": 200},
      {"smiles": "O=C(OCc1ccccc1)N1CC2COCCN2c2nc(-c3cccc4[nH]ccc34)ncc21", "note": "(centres unmarked) [Example 53, benzyl 2-(1H-indol-4-yl)-6a,7,9,10-tetrahydro-[1,4]oxazino[3,4-h]pteridine-5(6H)-carboxylate]", "IC50": 251},
      {"smiles": "COCCNC(=O)CN1C[C@@H]2COCCN2c2nc(-c3cccc4[nH]ccc34)ncc21", "note": "[Example 204, (R)-2-(2-(1H-indol-4-yl)-6a,7,9,10-tetrahydro-[1,4]oxazino[3,4-h]pteridin-5(6H)-yl)-N-(2-methoxyethyl)acetamide]", "IC50": 158},
      {"smiles": "c1cc(-c2ncc3c(n2)N2CCOCC2CN3Cc2ncco2)c2cc[nH]c2c1", "note": "(centres unmarked) [Example 39, 2-(1H-indol-4-yl)-5-(oxazol-2-ylmethyl)-5,6,6a,7,9,10-hexahydro-[1,4]oxazino[3,4-h]pteridine]", "IC50": 20},
      {"smiles": "CNC(=O)c1ccc(-c2ncc3c(n2)N2CCOCC2C(=O)N3Cc2ccc(S(C)(=O)=O)cc2)cn1", "note": "(centres unmarked) [Example 109, N-methyl-5-(5-(4-(methylsulfonyl)benzyl)-6-oxo-5,6,6a,7,9,10-hexahydro-[1,4]oxazino[3,4-h]pteridin-2-yl)picolinamide]", "IC50": 7940},
      {"smiles": "CNC(=O)Nc1ccc(-c2ncc3c(n2)N2CCOCC2C(=O)N3Cc2ccc(S(C)(=O)=O)cc2Cl)cc1", "note": "(centres unmarked) [Example 95, 1-(4-(5-(2-chloro-4-(methylsulfonyl)benzyl)-6-oxo-5,6,6a,7,9,10-hexahydro-[1,4]oxazino[3,4-h]pteridin-2-yl)phenyl)-3-methylurea]", "IC50": 0.794},
      {"smiles": "CS(=O)(=O)c1ccc(CN2CC3COCCN3c3nc(-c4cccc5[nH]ccc45)ncc32)c(Cl)c1", "note": "(centres unmarked) [Example 5, 5-(2-chloro-4-(methylsulfonyl)benzyl)-2-(1H-indol-4-yl)-5,6,6a,7,9,10-hexahydro-[1,4]oxazino[3,4-h]pteridine]", "IC50": 10},
      {"smiles": "CC(C)(C)C(N)CCN1C[C@@H]2COCCN2c2nc(-c3cccc4[nH]ccc34)ncc21", "note": "(stereo partly drawn) [Example 210, 1-((R)-2-(1H-indol-4-yl)-6a,7,9,10-tetrahydro-[1,4]oxazino[3,4-h]pteridin-5(6H)-yl)-4,4-dimethylpentan-3-amine]", "IC50": "> 10000"},
      {"smiles": "CS(=O)(=O)c1ccc(CN2CC3COCCN3c3nc(-c4cnc5[nH]ccc5c4)ncc32)cc1", "note": "(centres unmarked) [Example 25, 5-(4-(methylsulfonyl)benzyl)-2-(1H-pyrrolo[2,3-b]pyridin-5-yl)-5,6,6a,7,9,10-hexahydro-[1,4]oxazino[3,4-h]pteridine]", "IC50": 158},
      {"smiles": "CCc1nnc(CN2C[C@@H]3COCCN3c3nc(-c4cccc(CO)c4)ncc32)o1", "note": "[Example 172, (R)-(3-(5-((5-ethyl-1,3,4-oxadiazol-2-yl)methyl)-5,6,6a,7,9,10-hexahydro-[1,4]oxazino[3,4-h]pteridin-2-yl)phenyl)methanol]", "IC50": 5.01},
      {"smiles": "CS(=O)(=O)c1ccc(CN2CC3COCCN3c3nc(-c4cccc5[nH]ccc45)ncc32)cc1", "note": "(centres unmarked) [Example 19, 2-(1H-indol-4-yl)-5-(4-(methylsulfonyl)benzyl)-5,6,6a,7,9,10-hexahydro-[1,4]oxazino[3,4-h]pteridine]", "IC50": 10},
      {"smiles": "Cc1ccc(C(N)=O)c(CN2CC3COCCN3c3nc(-c4cccc5[nH]ccc45)ncc32)c1", "note": "(centres unmarked) [Example 228, 2-((2-(1H-indol-4-yl)-6a,7,9,10-tetrahydro-[1,4]oxazino[3,4-h]pteridin-5(6H)-yl)methyl)-4-methylbenzamide]", "IC50": 158},
      {"smiles": "CS(=O)(=O)Nc1cccc(-c2ncc3c(n2)N2CCOCC2C(=O)N3Cc2ccc(S(C)(=O)=O)cc2)c1", "note": "(centres unmarked) [Example 117, N-(3-(5-(4-(methylsulfonyl)benzyl)-6-oxo-5,6,6a,7,9,10-hexahydro-[1,4]oxazino[3,4-h]pteridin-2-yl)phenyl)methanesulfonamide]", "IC50": 794},
      {"smiles": "O=C(Cc1ccsc1)N1CC2COCCN2c2nc(-c3cccc4[nH]ccc34)ncc21", "note": "(centres unmarked) [Example 51, 1-(2-(1H-indol-4-yl)-6a,7,9,10-tetrahydro-[1,4]oxazino[3,4-h]pteridin-5(6H)-yl)-2-(thiophen-3-yl)ethanone]", "IC50": 251},
      {"smiles": "CNC(=O)Nc1ccc(-c2ncc3c(n2)N2CCOCC2C(=O)N3[C@H](C)c2ccc(Cl)cc2)cc1", "note": "(stereo partly drawn) [Example 84, 1-(4-(5-((R)-1-(4-chlorophenyl)ethyl)-6-oxo-5,6,6a,7,9,10-hexahydro-[1,4]oxazino[3,4-h]pteridin-2-yl)phenyl)-3-methylurea]", "IC50": 126},
      {"smiles": "CS(=O)(=O)c1ccc(CN2CC3COCCN3c3nc(-c4cncc5[nH]ccc45)ncc32)cc1", "note": "(centres unmarked) [Example 23, 5-(4-(methylsulfonyl)benzyl)-2-(1H-pyrrolo[2,3-c]pyridin-4-yl)-5,6,6a,7,9,10-hexahydro-[1,4]oxazino[3,4-h]pteridine]", "IC50": 5.01},
      {"smiles": "NC(=O)c1ccccc1CN1CC2COCCN2c2nc(-c3cccc4[nH]ccc34)ncc21", "note": "(centres unmarked) [Example 74, 2-((2-(1H-indol-4-yl)-6a,7,9,10-tetrahydro-[1,4]oxazino[3,4-h]pteridin-5(6H)-yl)methyl)benzamide]", "IC50": 63.1},
      {"smiles": "CC(C)(O)c1ccc(CN2CC3COCCN3c3nc(-c4cccc5[nH]ccc45)ncc32)cc1", "note": "(centres unmarked) [Example 13, 2-(4-((2-(1H-indol-4-yl)-6a,7,9,10-tetrahydro-[1,4]oxazino[3,4-h]pteridin-5(6H)-yl)methyl)phenyl)propan-2-ol]", "IC50": 15.8},
      {"smiles": "CC(=O)Nc1ccccc1-c1ncc2c(n1)N1CCOCC1C(=O)N2Cc1ccc(S(C)(=O)=O)cc1", "note": "(centres unmarked) [Example 104, N-(2-(5-(4-(methylsulfonyl)benzyl)-6-oxo-5,6,6a,7,9,10-hexahydro-[1,4]oxazino[3,4-h]pteridin-2-yl)phenyl)acetamide]", "IC50": 200}
    ]}
  ]
}
